Reference: patent US20220373538A1, “COMPOSITION FOR DETERMINATION OF CELL-MEDIATED IMMUNE RESPONSIVENESS” (Lophius Biosciences GmbH, priority 2015, published 2022)
Like-named read-outs stand apart in the source and are kept apart here.

Experiments:
Format in all cases: cell-based, human
[1] = tested on: PBMC; assay: IFN-γ ELISpot assay, two-step detection; conditions: for IL-12 concentration at which the number of IFN-γ secreting cells reached a maximum or plateau, IL-12 combined with the poly(I:C) variant: 10 μg/ml poly(I:C)-LMW, 1 μg/ml poly(I:C)-LMW/LyoVec, 1 μg/ml poly(I:C) (Enzo)
[2] = tested on: PBMC; assay: IFN-γ ELISpot assay, one-step detection; conditions: for IFN-γ secreting cells after stimulation with the single stimulant (in words) / number of IFN-γ secreting cells detected: single stimulant alone; for IFN-γ secreting cells after stimulation with the single stimulant (in words): collective of 10 donors, LPS 1 EU/ml; for number of IFN-γ secreting cells detected: donor d270
[3] = tested on: PBMC; assay: IFN-γ ELISpot assay (T-Track basic IFN-γ), PBMC of rheumatism patients; conditions: patient P1, giant cell arthritis, 35 mg prednisolone equivalent daily; days 6 and 9
[4] = tested on: PBMC; assay: IFN-γ ELISA, temporal course of IFN-γ release; conditions: for start of IFN-γ secretion after stimulation: working concentrations, 0 to 24 hours
Experimental: The detection of secreted IFN-γ was performed with the test kit “BD OptEIA Human IFN-γ ELISA Set” from Becton, Dickinson and Company according to the recommended assay performance in the technical data sheet.
To ensure that the activation of the IFN-γ production by the tested stimulants occurred in the typical stimulation period of 19 hours, the temporal course of the IFN-γ secretion induced by the stimulants was determined over a period of 24 hours. For this purpose, at each time point PBMC adjusted to 2×10^5 lymphocytes of different donors have been stimulated by the determined working concentrations of the stimulants poly(I:C) in combination with IL-12. KRN7000 and CEFTv for 0 to 24 hours.
In specifically stimulated cells the determination of the IFN-γ production was made to 11 time points in an interval of 2 or 4 hours. In unstimulated cells (negative control) three measurements in interval of 6 and 12 hours were made. Upon completion of each stimulation period the cells of the stimulation preparation were centrifuged and the supernatant stored at −20° C. After all stimulations were finished the IFN-γ concentration of the supernatants has been determined by IFN-γ ELISA as described in example 3.

[5] = donor d022, a-Gal-Cer variants titrated, 19 h

## CCCCCCCCCCCCCCCCCCCCCCCCCC(=O)N[C@@H](CO[C@H]1O[C@H](CO)[C@H](O)[C@H](O)[C@H]1O)[C@H](O)[C@H](O)CCCCCCCCCCCCCC [KRN7000 (from Enzo)]
[1]; donor d022, a-Gal-Cer variants
  IFN-γ secreting cells after stimulation (in words): highest number
[2]; [5]
  concentration at which the number of IFN-γ secreting cells reached a maximum, plateau or saturation region: 3 µg/mL

## C[C@]12C=CC(=O)C=C1CC[C@@H]1[C@@H]2[C@@H](O)C[C@@]2(C)[C@H]1CC[C@]2(O)C(=O)CO [prednisolone]
[3]
  course of cocktail-reactive IFN-γ producing cells under treatment (in words): continuous drop in the numbers of cocktail-reactive IFN-g-producing cells

## lipopolysaccharide [LPS]
[1]; LPS 1 EU/ml
  own stimulating effect of LPS (in words): no own detectable stimulating effect
[1]; summary of four donors
  stimulation ability of CEFTv on addition of LPS (in words): could not have been improved
[2]
  effect of combination of LPS with CEFTv (in words): synergistic induction of IFN-γ secreting NK cells
  IFN-γ secreting cells after stimulation with the single stimulant (in words): barely detected
  number of IFN-γ secreting cells detected: high number of IFN-γ secreting cells
[2]; all three tested donors d204, d237, d254
  stimulation ability of CEFTv on simultaneous administration of LPS (in words): did not result in an improvement
[2]; donor d204 (CMV-/EBV-seropositive), CEFTv / LPS matrix
  IFN-γ secreting cells after stimulation (in words): high numbers of IFN-γ secreting cells
[2]; donor d219, LPS in combination with CEFTv
  LPS concentration at which stimulated PBMC reached a maximum: 1 EU/ml
[2]; donor d237 (CMV-seronegative/EBV-seropositive), CEFTv / LPS matrix
  IFN-γ secreting cells after stimulation (in words): high numbers of IFN-γ secreting cells
[2]; donor d237, LPS in combination with CEFTv
  LPS concentration as from which IFN-γ secreting cells increased: 3.2 EU/ml
[2]; donor d241
  LPS concentration as from which LPS alone induced a low secretion of IFN-γ: 10 EU/ml
[2]; donor d241, LPS in combination with CEFTv
  LPS concentration as from which IFN-γ secreting cells increased: 3.2 EU/ml
[2]; donor d254
  LPS concentration as from which LPS alone induced a low secretion of IFN-γ: 100 EU/ml
[2]; donor d254 (CMV-/EBV-seropositive), CEFTv / LPS matrix
  IFN-γ secreting cells after stimulation (in words): low numbers of IFN-γ secreting cells
[2]; donors d204, d237, d254
  threshold for LPS at which even no IFN-γ secreting cells have been detected: 1 EU/ml

## polyinosinic:polycytidylic acid [poly(I:C) (from Enzo)]
[1]; donor d022
  IL-12 concentration at which the number of IFN-γ secreting cells reached a maximum or plateau, IL-12 combined with the poly(I:C) variant: 0.01 µg/mL
[1]; donor d098
  IL-12 concentration at which the number of IFN-γ secreting cells reached a maximum or plateau, IL-12 combined with the poly(I:C) variant: 0.001 µg/mL
[1]; donor d098, poly(I:C) variants
  IFN-γ secreting cells after stimulation (in words): without reaching a plateau
[1]; donor d248
  IL-12 concentration at which the number of IFN-γ secreting cells reached a maximum or plateau, IL-12 combined with the poly(I:C) variant: 0.01 µg/mL
[2]
  change of the number of IFN-γ secreting cells by IL-12 in combination with the poly(I:C) variant (in words): very low increase
  concentration at which the number of IFN-γ secreting cells reached a maximum, plateau or saturation region: around 0.3 μg/ml
[2]; donor d042, […]
  IFN-γ secreting cells after stimulation (in words): activation of IFN-γ secreting PBMC
[2]; donor d098, at highest concentration tested of 10 μg/ml
  number of IFN-γ secreting cells exceeding the plateau of poly(I:C)-LMW: more than 100%
[2]; summary of one-step and two-step detection
  ranking of activation of IFN-γ secreting cells in culture of human PBMC: highest activation of IFN-γ secreting cells

## CCCCCCCCCCCCCCCCCCCCCCCCCC(=O)N[C@@H](CO[C@H]1O[C@H](CO)[C@H](O)[C@H](O)[C@H]1O)[C@H](O)[C@H](O)CCCCCCCCCCCCCC [KRN7000 (from Funakoshi)]
[1]; donor d242, a-Gal-Cer variants
  IFN-γ secreting cells after stimulation (in words): highest number of IFN-γ secreting cells
[4]; donor d022
  time at which IFN-γ secretion reached a plateau or maximum: 12 h
  start of IFN-γ secretion after stimulation: 8 h
[4]; donor d248
  time at which IFN-γ secretion reached a plateau or maximum: 18 h
  start of IFN-γ secretion after stimulation: 2 h
[4]; summary of donors
  IFN-γ release in PBMC, comparison of stimulants (in words): weakest IFN-γ activating properties
[2]; [5]
  concentration at which the number of IFN-γ secreting cells reached a maximum, plateau or saturation region: 1 µg/mL
[2]; donor d248, saturation region
  more IFN-γ secreting cells activated compared with KRN7000 (from Enzo): 100%

## NC(N)=O [urea]
[1]; donor d034
  influence of urea on IFN-γ secreting cells induced by 1 μg p.p./ml CEFTv (in words): only improved by a 24 hours pre-incubation of CEFTv or directly added urea
[1]; donor d204, CEFTv pre-incubated for 48 hours in urea buffer
  influence of urea on IFN-γ secreting cells induced by 1 μg p.p./ml CEFTv (in words): deterioration of the stimulation at 100 mM and an improvement at 150 mM
[1]; donor d204, CEFTv pre-incubated in urea buffer for 24 hours
  urea concentration up to which the IFN-γ secreting cells increased: 12.5 mM
[1]; donor d204, without pre-incubation
  influence of urea on IFN-γ secreting cells induced by 1 μg p.p./ml CEFTv (in words): no improvement
[2]
  IFN-γ secreting cells after stimulation with the single stimulant (in words): did not result in a IFN-γ secretion

## polyinosinic:polycytidylic acid [poly(I:C)]
[2]
  number of IFN-γ secreting cells detected: over 270 IFN-γ secreting cells
